Reference: ChEMBL document CHEMBL1201862, “PubChem BioAssay data set” (2004)
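1) Cells in 96-well plates. 2) Compound, 48 h, 5 concentrations. 3) Linear interpolation between surrounding doses. 4) Unreached endpoint = highest concentration. GI50 = concentration required for 50% inhibition of growth.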 Calls of active or inactive are those of the source. Rule as the data show it: active = GI50 up to about 1.1 µM and inactive = higher.

How the values were obtained:
Test in all cases: NCI tumour cell line growth inhibition, 48 h
HOP-62 = test system: HOP-62
KM12 = test system: KM12
SN12C = test system: SN12C
OVCAR-3 = test system: OVCAR-3
Malme-3M = test system: Malme-3M
SNB-19 = test system: SNB-19
HCT-15 = test system: HCT-15
NCI-H522 = test system: NCI-H522
ACHN = test system: ACHN
NCI-H23 = test system: NCI-H23
DU-145 = test system: DU-145
SW-620 = test system: SW-620
LOX IMVI = test system: LOX IMVI
EKVX = test system: EKVX
SK-MEL-5 = test system: SK-MEL-5
SF-539 = test system: SF-539
M14 = test system: M14
CCRF-CEM = test system: CCRF-CEM
K562 = test system: K562
UACC-62 = test system: UACC-62

| Structure (SMILES) | GI50 (HOP-62) | GI50 (KM12) | GI50 (SN12C) | GI50 (OVCAR-3) | GI50 (Malme-3M) | GI50 (SNB-19) | GI50 (HCT-15) | GI50 (NCI-H522) | GI50 (ACHN) | GI50 (NCI-H23) | GI50 (DU-145) | GI50 (SW-620) | GI50 (LOX IMVI) | GI50 (EKVX) | GI50 (SK-MEL-5) | GI50 (SF-539) | GI50 (M14) | GI50 (CCRF-CEM) | GI50 (K562) | GI50 (UACC-62) |
| --- | --- | --- | --- | --- | --- | --- | --- | --- | --- | --- | --- | --- | --- | --- | --- | --- | --- | --- | --- | --- |
| CCN(CC)C(=S)N/N=C(/c1ccccc1)c1ccccn1 | 0.292 µM (active) | 0.0942 µM (active) | 0.214 µM (active) | 0.0288 µM (active) | 0.929 µM (active) | 2.84 µM (inactive) | 0.126 µM | 0.0984 µM (active) | 0.264 µM (active) | 0.267 µM (active) | 0.402 µM (active) | 0.121 µM (active) | 0.2 µM (active) | 0.583 µM (active) | 0.209 µM (active) | 0.343 µM (active) | 0.0618 µM (active) | 0.024 µM (active) | 0.185 µM (active) |  |
| CN(C)CCNc1ccc2ncn3c4ccc(O)cc4c(=O)c1c23 | 0.153 µM (active) | 1.95 µM (inactive) | 0.562 µM (active) | 3.04 µM (inactive) | 2.64 µM (inactive) | 0.92 µM (active) | 0.715 µM | 0.409 µM (active) | 0.158 µM (active) | 0.614 µM (active) | 0.315 µM (active) | 0.281 µM (active) | 0.543 µM (active) | 5.22 µM (inactive) | 0.714 µM (active) | 0.46 µM (active) | 1.63 µM (inactive) | 0.171 µM (active) | 0.762 µM (active) | 3.44 µM (inactive) |
| COc1cc(NCc2ccc3nc(-c4ccccc4)c(N)nc3c2)cc(OC)c1OC | 43.8 µM (inactive) | 26.5 µM (inactive) | 38.5 µM (inactive) | 25.6 µM (inactive) | 24.9 µM (inactive) | 46.2 µM (inactive) | 28.7 µM | 23.7 µM (inactive) | 29.4 µM (inactive) | 21.4 µM (inactive) | 36.6 µM (inactive) | 48.5 µM (inactive) | 41.9 µM (inactive) | 33.2 µM (inactive) | 15.3 µM (inactive) | 29.7 µM (inactive) | 18.4 µM (inactive) | 31.6 µM (inactive) | 41 µM (inactive) | 29.4 µM (inactive) |
| Cc1nc2ccc(Cl)cc2c2c1CCS2 | > 100 µM (inactive) | > 100 µM (inactive) | 42 µM (inactive) | 47.8 µM (inactive) | 90.2 µM (inactive) | > 100 µM (inactive) | > 100 µM | > 100 µM (inactive) | 45.1 µM (inactive) | 75 µM (inactive) | 91.2 µM (inactive) | > 100 µM (inactive) | 38 µM (inactive) |  | 27.6 µM (inactive) | 87.5 µM (inactive) | 71.3 µM (inactive) | 46 µM (inactive) | 40.9 µM (inactive) | 99.8 µM (inactive) |
| CCN(CC)Cc1cc(/N=N\c2c(O)ccc3c(/N=N\c4ccc(O)c(CN(CC)CC)c4)c(O)ccc23)ccc1O | 2.79 µM (inactive) | 1.18 µM (inactive) | 3.92 µM (inactive) | 3.73 µM (inactive) | 4.5 µM (inactive) | 3.86 µM (inactive) | 1.68 µM | 2.31 µM (inactive) | 2.49 µM (inactive) | 3.56 µM (inactive) | 2.65 µM (inactive) | 3.29 µM (inactive) | 1.59 µM (inactive) | 4.56 µM (inactive) | 2.47 µM (inactive) | 2.73 µM (inactive) | 5.4 µM (inactive) | 2.44 µM (inactive) | 2.21 µM (inactive) | 4.41 µM (inactive) |
